Reference: patent US9883997B2, “Cosmetic compositions with tricyclodecane amides” (Conopco, Inc., priority 2013, dated 2018)
Like-named read-outs stand apart in the source and are kept apart here. Values belong to the compound of their own block, whether it stands above or below them.

Experiments:
[1] = Precursor cosmetic compositions evaluated for crystals content, i.e. solubility of solid agent in the liquid agent (Example 29); assay type: physicochemical
Protocol: The following precursor cosmetic compositions were prepared and evaluated for crystals content, i.e. solubility of solid agent in the liquid agent.
The composition is heated to a temperature above the melting point of the highest melting compound, then allowed to cool to room temperature. […] In the case of end use cosmetic compositions visualization of the crystals of solid agent was done by comparing a sample with and without tricyclodecane amide and observing the formation of crystals, if any, under the optical microscope fitted with cross-polarizers at a magnification of 10× or higher.

[2] = cited from earlier work
[3] = 2-HEU (16.6%) in OMC (50%), [S]/[L] 0.3, amide (33.3%), 24 hours
[4] = 12HSA (16.6%) in OMC (50%), [S]/[L] 0.3, amide or comparator (33%), 24 hours
[5] = Cholesterol (16.6%) in OMC (50%), [S]/[L] 0.3, amide or comparator (33.3%), 24 hours
[6] = Cholesterol (18%) in retinol proprionate (50%), [S]/[L] 0.4, amide or comparator (32%), observation at 12 hours
[7] = Climbazole (28.5%) in OMC (42.8%), [S]/[L] 0.7, amide (28.5%), 24 hours
[8] = Climbazole (28.5%) in Pelemol GTIS (42.8%), [S]/[L] 0.7, amide (28.5%), 24 hours
[9] = Niacinamide (9.1%) in PPG425 (54.5%), [S]/[L] 0.2, amide (36.4%), observation at 12 hours
[10] = Niacinamide (10%) in Glucam P-20 (55%), [S]/[L] 0.2, amide (35%), 24 hours
[11] = retinyl palmitate (28.5%) in OMC (42.8%), [S]/[L] 0.7, amide or comparator (28.5%), 24 hours
[12] = liquid cosmetic agents, Table 2

- Appearance after cooling - observation at 24 hours, except as noted ([1]; Climbazole (10%) in Pelemol GTIS (90%), [S]/[L] 0.1, no tricyclodecaneamide, 24 hours): crystal + liquid
- Appearance after cooling - observation at 24 hours, except as noted ([1]; Climbazole (30%) in OMC (70%), [S]/[L] 0.4, no tricyclodecaneamide, 24 hours): crystal + liquid
- Appearance after cooling - observation at 24 hours, except as noted ([1]; Climbazole (40%) in PPG425 (60%), [S]/[L] 0.7, no tricyclodecaneamide, 24 hours): crystals + liquid
Compound: CC(C)(C)C(=O)C(Oc1ccc(Cl)cc1)n1ccnc1 (stereo not shown) [Climbazole]
- Log Po/w ([2]; solid cosmetic agents, Table 1): 3.49

- Appearance after cooling - observation at 24 hours, except as noted ([1]; 2-HEU (24.9%) in OMC (75.1%), [S]/[L] 0.3, no tricyclodecaneamide, 24 hours): crystal + liquid
Compound: NC(=O)NCCO [2-hydroxyethyl urea]
- Log Po/w ([2]; solid cosmetic agents, Table 1): −0.86

- Appearance after cooling - observation at 24 hours, except as noted [1, 3]: Translucent gel
- Appearance after cooling - observation at 24 hours, except as noted ([1]; Avobenzone (28%) in OMC (40%), [S]/[L] 0.7, amide (32%), 24 hours): Clear liquid
- Appearance after cooling - observation at 24 hours, except as noted ([1]; Avobenzone (45%) in OMC (27.5%), [S]/[L] 1.6, amide (27.5%), 24 hours): crystals + liquid
- Appearance after cooling - observation at 24 hours, except as noted [1, 5]: Translucent gel
- Appearance after cooling - observation at 24 hours, except as noted [1, 7]: clear liquid
- Appearance after cooling - observation at 24 hours, except as noted [1, 8]: clear liquid
- Appearance after cooling - observation at 24 hours, except as noted [1, 10]: clear liquid
Compound: CC(C)(C)CC(C)(C)NC(=O)C12CC3CC(CC(C3)C1)C2 [Compound C21, Methanone, (1,1-dimethyl-3,3-dimethylbutylaminyl) tricyclo[3.3.1.1^3,7]dec-1-yl-]

- Appearance after cooling - observation at 24 hours, except as noted [1, 3]: clear liquid
- Appearance after cooling - observation at 24 hours, except as noted [1, 4]: translucent gel
- Appearance after cooling - observation at 24 hours, except as noted [1, 5]: Clear liquid
- Appearance after cooling - observation at 24 hours, except as noted [1, 7]: clear liquid
- Appearance after cooling - observation at 24 hours, except as noted [1, 8]: clear liquid
- Appearance after cooling - observation at 24 hours, except as noted [1, 9]: clear liquid
- Appearance after cooling - observation at 24 hours, except as noted [1, 10]: clear liquid
Compound: O=C(N1CCCC2CCCCC21)C12CC3CC(CC(C3)C1)C2 (stereo not shown) [Compound C10, Methanone, (decahydroquinolinyl)tricyclo[3.3.1.1^3,7]dec-1-yl-]

- Appearance after cooling - observation at 24 hours, except as noted ([1]; Cholesterol (16%) in OMC (84%), [S]/[L] 0.2, no tricyclodecaneamide, 24 hours): crystal + liquid
- Appearance after cooling - observation at 24 hours, except as noted ([1]; Cholesterol (20%) in conjugated linoleic acid (80%), [S]/[L] 0.2, no tricyclodecaneamide, 24 hours): crystals + liquid
- Appearance after cooling - observation at 24 hours, except as noted ([1]; Cholesterol (20%) in retinol proprionate (80%), [S]/[L] 0.3, no tricyclodecaneamide, observation at 12 hours): opaque solid
Compound: CC(C)CCC[C@@H](C)[C@H]1CC[C@H]2[C@@H]3CC=C4C[C@@H](O)CC[C@]4(C)[C@H]3CC[C@]12C [cholesterol]
- Log Po/w ([2]; solid cosmetic agents, Table 1): 9.62

- Appearance after cooling - observation at 24 hours, except as noted ([1]; Niacinamide (10%) in Glucam P-20 (90%), [S]/[L] 0.1, no tricyclodecaneamide, 24 hours): crystal + liquid
- Appearance after cooling - observation at 24 hours, except as noted ([1]; Niacinamide (14.5%) in PPG425 (85.5%), [S]/[L] 0.2, no tricyclodecaneamide, observation at 12 hours): opaque solid
Compound: NC(=O)c1cccnc1 [Niacinamide]
- Log Po/w ([2]; solid cosmetic agents, Table 1): −0.37

- Appearance after cooling - observation at 24 hours, except as noted [1, 4]: opaque solid
Compound: NC(=O)c1ccccc1C(N)=O [phthalamide, reference compound]

The next lines start with the compound.

Compound: CC1CCCN(C(=O)C23CC4CC(CC(C4)C2)C3)C1 (stereo not shown) [Compound C14, Methanone, (3-methyl-1-piperidinyl)tricyclo[3.3.1.1^3,7]dec-1-yl-]
- Appearance after cooling - observation at 24 hours, except as noted [1, 3]: clear liquid
- Appearance after cooling - observation at 24 hours, except as noted ([1]; 2-HEU (42%) in OMC (33%), [S]/[L] 1.3, amide (25%), 24 hours): crystal + liquid
- Appearance after cooling - observation at 24 hours, except as noted [1, 4]: translucent gel
- Appearance after cooling - observation at 24 hours, except as noted ([1]; 12HSA (16.6%) in Pelemol TISC (50%), [S]/[L] 0.3, amide (33%), 24 hours): translucent gel
- Appearance after cooling - observation at 24 hours, except as noted ([1]; Avobenzone (28.5%) in Propylene glycol (42.8%), [S]/[L] 0.7, amide (28.5%), 24 hours): Crystal + liquid
- Appearance after cooling - observation at 24 hours, except as noted ([1]; Cholesterol (10%) in conjugated linoleic acid (45%), [S]/[L] 0.2, amide (45%), 24 hours): clear liquid
- Appearance after cooling - observation at 24 hours, except as noted [1, 5]: Clear liquid
- Appearance after cooling - observation at 24 hours, except as noted [1, 6]: clear liquid
- Appearance after cooling - observation at 24 hours, except as noted ([1]; Cholesterol (35%) in OMC (32%), [S]/[L] 1.1, amide (33%), 24 hours): crystal + liquid
- Appearance after cooling - observation at 24 hours, except as noted ([1]; Cholesterol (40%) in conjugated linoleic acid (30%), [S]/[L] 1.3, amide (30%), 24 hours): crystals + liquid
- Appearance after cooling - observation at 24 hours, except as noted ([1]; Cholesterol (45%) in retinol proprionate (35%), [S]/[L] 1.3, amide (20%), observation at 12 hours): opaque solid
- Appearance after cooling - observation at 24 hours, except as noted [1, 7]: clear liquid
- Appearance after cooling - observation at 24 hours, except as noted ([1]; Climbazole (28.5%) in PPG425 (42.8%), [S]/[L] 0.7, amide (28.5%), 24 hours): clear liquid
- Appearance after cooling - observation at 24 hours, except as noted [1, 8]: clear liquid
- Appearance after cooling - observation at 24 hours, except as noted ([1]; Climbazole (45%) in PPG425 (35%), [S]/[L] 1.3, amide (20%), 24 hours): crystals + liquid
- Appearance after cooling - observation at 24 hours, except as noted ([1]; Climbazole (50%) in Pelemol GTIS (25%), [S]/[L] 2, amide (25%), 24 hours): crystal + liquid
- Appearance after cooling - observation at 24 hours, except as noted ([1]; Climbazole (55%) in OMC (22.5%), [S]/[L] 2.4, amide (22.5%), 24 hours): crystal + liquid
- Appearance after cooling - observation at 24 hours, except as noted ([1]; Methyl Paraben (40%) in PPG-425 (40%), [S]/[L] 1, amide (20%), 24 hours): clear liquid
- Appearance after cooling - observation at 24 hours, except as noted ([1]; Methyl Paraben (60%) in PPG-425 (25%), [S]/[L] 2, amide (15%), 24 hours): crystal + liquid
- Appearance after cooling - observation at 24 hours, except as noted [1, 9]: clear liquid
- Appearance after cooling - observation at 24 hours, except as noted [1, 10]: clear liquid
- Appearance after cooling - observation at 24 hours, except as noted ([1]; Niacinamide (35%) in Glucam P-20 (25%), [S]/[L] 1.4, amide (40%), 24 hours): crystal + liquid
- Appearance after cooling - observation at 24 hours, except as noted ([1]; Niacinamide (35%) in PPG425 (32.5%), [S]/[L] 1.1, amide (32.5%), observation at 12 hours): opaque solid
- Appearance after cooling - observation at 24 hours, except as noted ([1]; Salicylic acid (15%) in conjugated linoleic acid (35%), [S]/[L] .4, amide (50%), 24 hours): clear liquid
- Appearance after cooling - observation at 24 hours, except as noted ([1]; Salicylic acid (18%) in OMC (50%), [S]/[L] 0.4, amide (32%), 24 hours): clear liquid
- Appearance after cooling - observation at 24 hours, except as noted ([1]; Salicylic acid (42%) in conjugated linoleic acid (33%), [S]/[L] 1.3, amide (25%), 24 hours): opaque solid
- Appearance after cooling - observation at 24 hours, except as noted ([1]; Salicylic acid (60%) in OMC (25%), [S]/[L] 2.4, amide (15%), 24 hours): crystal + liquid
- Appearance after cooling - observation at 24 hours, except as noted [1, 11]: clear liquid

Compound: CC(C)CCCCCCCCCCCCCCC(=O)OC(C)C [isopropyl isostearate]
- Log Po/w [2, 12]: 9.14

Compound: CC(O)CO (stereo not shown) [Propylene glycol]
- Log P ([2]; liquid agent named in Table 3): P~−1.3)

Compound: O=C(O)CO [Glycolic acid]
- Log Po/w ([2]; solid cosmetic agents, Table 1): −1.2

Compound: Conjugated linoleic acid
- Log Po/w [2, 12]: >6

Compound: Oc1cc(Cl)ccc1Oc1ccc(Cl)cc1Cl [Triclosan]
- Log Po/w ([2]; solid cosmetic agents, Table 1): 5.34

Compound: CCCCCCCCCCCCCCCCCC(N)=O [octadecanamide, reference compound]
- Appearance after cooling - observation at 24 hours, except as noted [1, 4]: opaque solid
- Appearance after cooling - observation at 24 hours, except as noted [1, 5]: crystal + liquid
- Appearance after cooling - observation at 24 hours, except as noted [1, 6]: opaque solid
- Appearance after cooling - observation at 24 hours, except as noted ([1]; Climbazole (16.6%) in OMC (50%), [S]/[L] 0.7, straight chain comparator (33.3%), 24 hours): crystal + liquid
- Appearance after cooling - observation at 24 hours, except as noted [1, 11]: crystal + liquid

Compound: CCCCC(CC)COC(=O)C=Cc1ccc(OC)cc1 (stereo not shown) [Octylmethoxycinnamate]
- Log Po/w [2, 12]: 5.92

Compound: CCCCCCCCCCCCCC(=O)NC1CCCC(C)C1 (stereo not shown) [tetradecanoic acid (3 methyl-cyclohexyl)-amide, reference compound]
- Appearance after cooling - observation at 24 hours, except as noted ([1]; Avobenzone (45%) in OMC (27.5%), [S]/[L] 2, straight chain comparator (27.5%), 24 hours): crystals + liquid

Compound: CCCCC(CC)COC(=O)C(C#N)=C(c1ccccc1)c1ccccc1 (stereo not shown) [octocrylene]
- Log Po/w [2, 12]: 6.89

Compound: CCCCCCCCCCCCCC(=O)OC(C)C [Isopropyl myristate]
- Log Po/w [2, 12]: 7.25
